# Measurements as given in patent US20220333153A1, “ULTRASENSITIVE ELECTROCHEMICAL BIOSENSORS” (MOLECULAR WAREHOUSE, LTD., priority 2016, published 2022).
# B1: affinity clamp: circularly permutated Erbin PDZ domain linked to engineered fibronectin type III (FN3) (protein)
# chain: EDAPESPELGFSISGGVGGRGNPFRPDDDGIFVTRVQPEGPASKLLQPGDKIIQANGYSFINIEHGQAVSLLKTFQNTVELIIVREVGNGAKQEIRVRVEKDGGSGGVSSVPTNLEVVAATPTSLLISWDAYRELPVSYYRITYGETGGNSPVQEFTVPGSKSTATISGLKPGVDYTITVYAHYNYHYYSSPISINYRGPG
# modifications: ePDZ domain
# B2: IL18: cytokine analyte of the dissociative biosensor (protein)
# chain: GYFGKLESKLSVIRNLNDQVLFIDQGNRPLFEDMTDSDSRDNAPRTIFIISMYKDSQPRGMAVTISVKSEKISTLSSENKIISFKEMNPPDNIKDTKSDIIFFQRSVPGHDNKMQFESSSYEGYFLASEKERDLFKLILKKEDELGDRSIMFTVQNEDG
# modifications: Interleukin-18
# notes: cytokine analyte of the dissociative biosensor
# Assays:
# [1] = GDH enzymatic activity of the chimeric proteins themselves; assay type: biochemical
# Method: (§1) The GDH enzyme assay was performed as described by Yu et al.^20 Briefly, the 1.5-mL assay system consisted of 20 mM glucose, 0.6 mM phenazine methosulfate, 0.06 mM […], 10 mM MOPS (pH 7.0), and corresponding concentration of CaCl2 and enzyme. The enzymatic assay was performed at 25° C. by monitoring the reduction in the absorbance of […] at 600 nm.
# We conjectured that dislocation of either of these residues will impact the catalysis and if carried out in a reversible fashion could utilized for controlling enzymes activity. To test this idea we inserted calmodulin (CaM) domain into GDH at the position 330 and produced the resulting CaM-GDH chimeric protein (SEQ ID NO: 10) in recombinant form. […] The activity of fully activated fusion represented 50% of activity of the wild-type protein. […] We therefore concluded that we successfully constructed a peptide regulated GDH biosensor module.
# We next decided to test if the developed allosteric module can be used to construct a generic biosensor architecture. To this end we fused the developed CaM-GDH chimera C-terminally with rapamycin-binding FKBP domain (SEQ ID NO: 11) and produced the protein in recombinant form. […] We then constructed a fusion between FKBP binding partner FRB and CaM-BP that would associate with the former reporter molecule in the rapamycin dependent fashion. […]
# [2] = system: affinity clamp-GDH chimera (SEQ ID NO: 25); experiment: OFF switch: inhibition of GDH activity of affinity clamp-GDH chimera by PDZ peptides; assay type: biochemical; conditions: 10 nM chimera; 1 μM strong or 2 μM weak peptide ligand
# Description: (§2) FIG. 5. Development and applications of an OFF switch biosensor based on GDH. […] (C) as in B but using the biosensor with the optimized linkers between the affinity clamp and the GDH, titrated with the increasing concentrations of the strong ligand peptide. (D) A dissociative biosensor architecture based on the developed affinity clamp-GDH biosensor. The star denotes the ligand either genetically fused or conjugated to the regulatory domain. (E) Exemplification of the design shown in D with a biosensor for IL18: the ligand is IL18 and the binder is IL18 binding protein. […] (G) As in D but using a binder that competitively associates with the receptor domain and is dislodged by the binding of the ligand.
# as §1
# So far all presented biosensor architectures were designed to increase the GDH activity upon association with the analyte. While this is a common strategy it creates potential problems when binding of two protein modules to a single small molecule is required. […]
# [3] = biological target: PDZ domain binding peptide; conditions: read-out: affinity for PDZ domain binding peptide; cited from earlier work
# [4] = system: affinity clamp-GDH IL18 binding protein chimera (SEQ ID NO: 37) with IL18-affinity-clamp ligand fusion (SEQ ID NO: 38); experiment: IL18 dissociative biosensor, GDH activity; assay type: biochemical; conditions: 10 nM SEQ ID NO: 37, 50 nM SEQ ID NO: 38; 0 to 2.5 μM IL18
# Description: as §2
# The developed GDH —based OFF switch can be converted into biosensors of small molecules and biological polymers such as proteins and nucleic acids by fusing it to the appropriate binding domains (FIG. 5D) FIG. 5E depicts an IL18 biosensor that was generated incorporating a GDH-based OFF switch based on a fusion with IL18 binding protein, where the ligand is IL18 and the binder IL18 binding protein.
molecule,measurement,setting,value
"CaM-GDH chimeric protein: PQQ-GDH with calmodulin domain inserted at position 330, recombinant",GDH activity of the protein without activating ligand,[1]; absence of CaM-BP / activating ligand,some GDH activity
same,activity of fully activated fusion as share of activity of the wild-type protein,[1]; fully activated by CaM-BP,50%
"RGSIDTWV (PDZ peptide (ePDZ ligand, high affinity)) [SEQ ID NO: 27]",inhibition of GDH activity of affinity clamp-GDH chimera,[2],stronger inhibition of GDH activity than the weaker ligand
B1,Kd,[3],< 1 nM
B2,detection by IL18 biosensor (GDH activity),[4],dose-dependent detection
